The NIST ThermoML archive (doi:10.1016/j.fluid.2007.01.021)
Numbers after ± are expanded uncertainties.

Columns and labels:
[1] = refractive index (Na D-line) (dimensionless); details: 293.15 K; 101.33 kPa; Liquid; Standard Abbe refractometry
[2] = 293.15 K; 101.33 kPa; Liquid

`CC(=O)OC1CCCCC1` [cyclohexyl ethanoate] showed a refractive index [1] of 1.4422 ± 0.0006 and a mass density [2] of 968.2 ± 0.5 kg/m3.
Work on `CCCO` [propan-1-ol] yielded a refractive index [1] of 1.385 ± 0.0006 and a mass density [2] of 803.5 ± 1 kg/m3.
Work on `CCCCCOC(C)=O` [pentyl ethanoate] yielded a refractive index [1] of 1.4026 ± 0.0006 and a mass density [2] of 875 ± 0.8 kg/m3.
`OC1CCCCC1` [cyclohexanol] showed a refractive index [1] of 1.4639 ± 0.0006 and a mass density [2] of 962.3 ± 0.6 kg/m3.
For `O` [water], the refractive index [1] was 1.3326 ± 0.0006 and the mass density [2] was 998.4 ± 0.5 kg/m3.
